The results in this text go back to patent US9552457B2, “Reprogramming effector protein interactions to correct epigenetic defects in cancer” (BRITISH COLUMBIA CANCER AGENCY BRANCH, priority 2012, dated 2017).

Where two headings read alike, the source gives them in different places.

Data set [1] deals with DoHH2 Cells (wildtype for EZH2, MEF2B and MLL2). As to the kind of experiment: Cell viability of lymphoma cell lines, DoHH-2. Type of data set: cell-based. Details: Effect on Cell Viability (% survival) DoHH2 Cells: concentration or dose not given beside the values. The note with it: Table 5. On the procedure:
(§1) Compound 50 was tested for its effect on the viability of three lymphoma cell lines in vitro using standard methods. The cell lines tested were: DoHH-2 (wildtype for EZH2, MEF2B and MLL2); WSU-DLCL2 (EZH2 mutation Y641F (wildtype for MEF2B and MLL2)) and DB (EZH2 mutation Y641N, the MEF2B mutation D83V and three mutations in MLL2 (two of which lead to a truncated protein after residue Q2736 and the third allele has a 1 base pair deletion at residue P480)).
(§2) Compound 51 (NSC2540) was tested for its effect on the viability of four lymphoma cell lines in vitro using standard methods. The cell lines tested were DoHH-2, WSU-DLCL2, DB and SU-DHL-9 (EZH2 wildtype, MEF2B wildtype, MLL2 indel).

Data set [2] relates to WSU-DLCL2 Cells (EZH2 mutation Y641F). Description: Cell viability of lymphoma cell lines, WSU-DLCL2. It counts as cell-based, human. Further details: Effect on Cell Viability (% survival) WSU-DLCL2 Cells: concentration or dose not given beside the values. To be noted: Table 5. As to the method: as §1, §2
In data set [3] the test system is SU-DHL-9 (MLL2 homozygous indel mutant) cell line. As to the kind of experiment: alamarBlue cell proliferation assay, SU-DHL-9 cell line. The note with it: for activity at 10 µM: Homo sapiens, read-out: % Cell Proliferation; for activity as worded in SAR analysis (selective toxicity against SU-DHL-9): in words, restates Tables 3 and 4. It counts as cell-based, human. As to the method:
Cell line DOHH2 was obtained from DSMZ. Pfeiffer was obtained from ATCC. SU-DHL-9 was obtained from Martin Dyer (University of Leicester, UK).
Compounds were initially solubilized in DMSO at a concentration of 10 mM. […] Ninety microliters of cells maintained at a concentration of 4×10^5 cells/mL were dispensed into wells of a MICROTEST™ 96-well Assay Plate, Optilux™ (BD). Ten microliters of the 100 μM compound solution were then added to the cells resulting in a final compound concentration of 10 μM. Each compound was tested in triplicate. […] Compounds were incubated with the cells in a 37° C. incubator with 5% CO2, humidified atmosphere for 48 hours before being subjected to the alamarBlue® cell proliferation assay (Life Technologies). Raw fluorescent units were corrected for background noise and normalized to the carrier-treated control.
(In general: The colour change of resazurin is a common sign of viable cells or microbes.)

Where [4] appears, read: Table 3, scaffold A, 10 μM, 48 hours, normalized to carrier-treated control, SU-DHL-9.
[5] abbreviates: Table 4, scaffold B, 10 μM, 48 hours, normalized to carrier-treated control, SU-DHL-9.

For `O=C(Cl)c1cc(-c2ccc(Cl)cc2)nc2c(-c3ccccc3)cccc12` [Compound 37], in data set [1], the “Effect on Cell Viability (% survival) DoHH2 Cells” value (“Effect … (% survival) DoHH2 Cells” for short) was 100%. Also, the “Effect on Cell Viability (% survival) WSU-DLCL2 Cells” value (“Effect … (% survival) WSU-DLCL2 Cells” below) in data set [2] came out at 80%.

Turning to `CCCN(CCC)CC(O)c1cc(-c2ccc(Cl)cc2)nc2c(C)c(Cl)ccc12` (centres unmarked) [Compound 46], the “Effect … (% survival) DoHH2 Cells” value in data set [1] was determined as 100%. In data set [2], the “Effect … (% survival) WSU-DLCL2 Cells” value came to 90%.

As to `Cc1c(Cl)ccc2c(C(=O)NN)cc(-c3ccc(Cl)cc3)nc12` [Compound 48], the “Effect … (% survival) DoHH2 Cells” value in data set [1] was 90%. Besides, the “Effect … (% survival) WSU-DLCL2 Cells” value in data set [2] is 40%.

For `C=C(CN(C)C)C(=O)c1ccc(C)cc1C` [Compound 15], the activity at 10 µM in data set [3] (setting [4]) came to 61%.

On to `CC(=O)NC(CC(=O)Nc1cccc2c1C(=O)c1ccccc1-2)C(C)=O` (centres unmarked) [Compound 23], for which the activity at 10 µM in data set [3] (setting [5]) amounted to 114%. Moreover, the “activity as worded in SAR analysis (selective toxicity against SU-DHL-9)” value (shortened to “activity … (selective toxicity against SU-DHL-9)”) in data set [3] is “inactive”.

On to `OC(CBr)c1cc(-c2ccccc2)nc2ccccc12` (centres unmarked) [Compound 25], for which the “Effect … (% survival) DoHH2 Cells” value in data set [1] was 100%. The “Effect … (% survival) WSU-DLCL2 Cells” value in data set [2] turned out to be 60%.

For `OC(c1cc(-c2ccc(Cl)cc2)nc2ccccc12)C1CCCCN1` (centres unmarked) [Compound 40], in data set [1], the “Effect … (% survival) DoHH2 Cells” value was 100%. Besides, the “Effect … (% survival) WSU-DLCL2 Cells” value in data set [2] was determined as 50%.

As for `OC(CBr)c1cc(-c2ccccc2)nc2c(Cl)cc(Cl)cc12` (centres unmarked) [Compound 34], the “Effect … (% survival) DoHH2 Cells” value in data set [1] worked out at 100%. Besides, the “Effect … (% survival) WSU-DLCL2 Cells” value in data set [2] is 90%.

As for `CC(O)c1cc(-c2ccccc2)nc2ccccc12` (centres unmarked) [Compound 26], the “Effect … (% survival) DoHH2 Cells” value in data set [1] is given as 100%. Besides, the “Effect … (% survival) WSU-DLCL2 Cells” value in data set [2] is reported as 90%.

With `CCN(CC)CC(O)c1cc(-c2ccc(Cl)cc2)nc2cc(Cl)ccc12` (centres unmarked) [Compound 45], the “Effect … (% survival) DoHH2 Cells” value in data set [1] amounted to 100%. Moreover, in data set [2], the “Effect … (% survival) WSU-DLCL2 Cells” value was 80%.

Consider `O=C(CBr)c1cc(-c2ccc(Cl)cc2)nc2c(-c3ccccc3)cccc12` [Compound 35], for which the “Effect … (% survival) DoHH2 Cells” value in data set [1] is given as 20%. The “Effect … (% survival) WSU-DLCL2 Cells” value in data set [2] is recorded as 17%.

For `O=C(c1cc(-c2ccc(Cl)c(Cl)c2)nc2c(Cl)cc(Cl)cc12)C1NN1` [Compound 33], in data set [1], the “Effect … (% survival) DoHH2 Cells” value turned out to be 100%. Further, in data set [2], the “Effect … (% survival) WSU-DLCL2 Cells” value is on record as 100%.

`C=CS(=O)(=O)c1ccc2ccccc2c1` [Compound 6, 2-ethenylsulfonylnaphthalene]: the activity at 10 µM in data set [3] (setting [4]) was 69%. The “activity … (selective toxicity against SU-DHL-9)” value in data set [3] is “only moderate activity”.

`O=C1c2ccccc2-c2c(NC(=O)C(Cl)Cl)cccc21` [Compound 9, 2,2-dichloro-N-(9-oxofluoren-4-yl)acetamide]: the activity at 10 µM in data set [3] (setting [5]) stood at 117%.

Take `OC(c1cc(-c2ccccc2)nc2c(Cl)cc(Cl)cc12)C1CCCCN1` (centres unmarked) [Compound 42]: the “Effect … (% survival) DoHH2 Cells” value in data set [1] is 30%. Besides, the “Effect … (% survival) WSU-DLCL2 Cells” value in data set [2] is listed as 10%.

In the case of `Cc1c(Cl)ccc2c(C(O)CN(C)C)cc(-c3ccc(Cl)cc3)nc12` (centres unmarked) [Compound 47], in data set [1], the “Effect … (% survival) DoHH2 Cells” value is 100%. Also, in data set [2], the “Effect … (% survival) WSU-DLCL2 Cells” value stood at 100%.

Turning to `OC(c1cc(-c2ccccc2)nc2cc(Cl)ccc12)C1CCCCN1` (centres unmarked) [Compound 43], the “Effect … (% survival) DoHH2 Cells” value in data set [1] is on record as 40%. Further, the “Effect … (% survival) WSU-DLCL2 Cells” value in data set [2] was 10%.

Take `C=C(CNC(C)(C)C)C(=O)c1ccccc1` [Compound 8, 2-[(tert-butylamino)methyl]-1-phenylprop-2-en-1-one]: the activity at 10 µM in data set [3] (setting [4]) came out at 92%.

Turning to `CC(=O)C(=O)c1ccccc1` [Compound 12], in data set [3] (48 h), the activity at 10 µM worked out at 105%.

`COc1ccccc1C(=O)C(=O)CN(C)C` [Compound 17]: the activity at 10 µM in data set [3] (setting [4]) was 89%. Further, in data set [3], the “activity … (selective toxicity against SU-DHL-9)” value was “inactive or minimally active”.

On to `OC(CBr)c1cc(-c2ccc(Cl)cc2)nc2c(-c3ccccc3)cccc12` (centres unmarked) [Compound 36], for which the “Effect … (% survival) DoHH2 Cells” value in data set [1] is reported as 100%. In addition, in data set [2], the “Effect … (% survival) WSU-DLCL2 Cells” value is recorded as 90%.

Turning to `OC(c1cc(-c2cccc(Cl)c2)nc2ccccc12)C1CCCCN1` (centres unmarked) [Compound 41], the “Effect … (% survival) DoHH2 Cells” value in data set [1] stood at 17%. The “Effect … (% survival) WSU-DLCL2 Cells” value in data set [2] came to 10%.

As to `O=C(CBr)c1cc(-c2ccc(Cl)cc2)nc2cc(Cl)ccc12` [Compound 30], in data set [1], the “Effect … (% survival) DoHH2 Cells” value came to 60%. In data set [2], the “Effect … (% survival) WSU-DLCL2 Cells” value is 40%.

Take `OC(c1cc(-c2ccccc2)nc2c1ccc1ccccc12)C1CCCCN1` (centres unmarked) [Compound 44]: the “Effect … (% survival) DoHH2 Cells” value in data set [1] is on record as 10%. The “Effect … (% survival) WSU-DLCL2 Cells” value in data set [2] came out at 10%.

`Cc1c(Cl)ccc2c(C(=O)CNCc3ccccc3)cc(-c3ccc(Cl)cc3)nc12` [Compound 49]: the “Effect … (% survival) DoHH2 Cells” value in data set [1] turned out to be 70%. In addition, the “Effect … (% survival) WSU-DLCL2 Cells” value in data set [2] stood at 50%.

Take `CC(=O)Nc1cccc2c1C(=O)c1ccccc1C2=O` [Compound 24]: the activity at 10 µM in data set [3] (setting [5]) is 107%. For the same molecule, the “activity … (selective toxicity against SU-DHL-9)” value in data set [3] was “inactive”.

In the case of `OC(c1cc(-c2ccc(Cl)cc2Cl)nc2cc(Cl)ccc12)C1CCCCN1` (centres unmarked) [Compound 39], the “Effect … (% survival) DoHH2 Cells” value in data set [1] was 60%. For the same molecule, the “Effect … (% survival) WSU-DLCL2 Cells” value in data set [2] worked out at 20%.

As for `C=C(CN(C)C)C(=O)c1ccccc1` [Compound 19], the activity at 10 µM in data set [3] (setting [4]) worked out at 77%. For the same molecule, the “activity … (selective toxicity against SU-DHL-9)” value in data set [3] is “inactive or minimally active”.

As for `O=C1c2ccccc2-c2cccc(NC(=O)C(Cl)Cl)c21` [Compound 22], the activity at 10 µM in data set [3] (setting [5]) is 86%. Moreover, in data set [3], the “activity … (selective toxicity against SU-DHL-9)” value is reported as “partially active”.

As for `C=C(CN(C)C)C(=O)c1ccc(C(=O)C(=C)CN(C)C)cc1` [Compound 14], in data set [3] (setting [4]), the activity at 10 µM amounted to 93%. The “activity … (selective toxicity against SU-DHL-9)” value in data set [3] is “lacks activity”.

Take `OC(c1cc(-c2ccc(Cl)cc2)nc2cc(Cl)ccc12)N1CCCCC1` (centres unmarked) [Compound 38]: the “Effect … (% survival) DoHH2 Cells” value in data set [1] was found to be 100%. Moreover, the “Effect … (% survival) WSU-DLCL2 Cells” value in data set [2] is recorded as 80%.

For `CC(=O)c1cc(-c2ccc(Cl)c(Cl)c2)nc2c(Cl)cc(Cl)cc12` [Compound 32], in data set [1], the “Effect … (% survival) DoHH2 Cells” value came to 100%. The “Effect … (% survival) WSU-DLCL2 Cells” value in data set [2] is listed as 90%.

Take `C=CCCC(=C)c1ccccc1` [Compound 21]: the activity at 10 µM in data set [3] (setting [4]) worked out at 105%.

Consider `C=CC(=O)c1ccccc1` [Compound 13], for which, in data set [3] (setting [4]), the activity at 10 µM was determined as 137%.

For the molecule `OC(CBr)c1cc(-c2ccc(Cl)cc2)nc2cc(Cl)ccc12` (centres unmarked) [Compound 31], in data set [1], the “Effect … (% survival) DoHH2 Cells” value turned out to be 100%. The “Effect … (% survival) WSU-DLCL2 Cells” value in data set [2] stood at 100%.

Take `C=C(CN(C)C)C(=O)c1ccccc1C` [Compound 16]: the activity at 10 µM in data set [3] (setting [4]) was 107%. The “activity … (selective toxicity against SU-DHL-9)” value in data set [3] is “inactive or minimally active”.

Consider `O=C(CBr)c1cc(-c2ccc(Cl)cc2)nc2ccccc12` [Compound 27], for which the “Effect … (% survival) DoHH2 Cells” value in data set [1] is given as 90%. For the same molecule, in data set [2], the “Effect … (% survival) WSU-DLCL2 Cells” value is recorded as 40%.

Take `C=C(CN(C)C)C(=O)c1ccc(OC)cc1` [Compound 20]: in data set [3] (setting [4]), the activity at 10 µM turned out to be 83%.

As for `CC(O)c1cc(-c2ccc(Cl)cc2)nc2ccccc12` (centres unmarked) [Compound 29], in data set [1], the “Effect … (% survival) DoHH2 Cells” value was 100%. Besides, in data set [2], the “Effect … (% survival) WSU-DLCL2 Cells” value came out at 80%.

Regarding `CC(=O)c1cc(-c2ccc(Cl)cc2)nc2ccccc12` [Compound 28], in data set [1], the “Effect … (% survival) DoHH2 Cells” value is recorded as 100%. In addition, the “Effect … (% survival) WSU-DLCL2 Cells” value in data set [2] is 100%.

In the case of `C=C(CN1CCOCC1)C(=O)c1ccccc1` [Compound 11, 2-(morpholin-4-ylmethyl)-1-phenylprop-2-en-1-one], the activity at 10 µM in data set [3] (setting [4]) was determined as 26%.
